Values after ≈ are worked out from the molar mass of the structure shown.
What was measured:
Assay in all cases: ≥ marks a high value that may be exact or a test limit, other limits are often not marked, values filed in µg/mL are converted to µM
[1] = system: Bacillus subtilis ATCC 23858
[2] = system: Staphylococcus aureus ATCC 33591
[3] = system: Bacillus cereus ATCC 14579
[4] = system: Listeria monocytogenes ATCC 7644
[5] = system: Pseudomonas aeruginosa Pa1-SA2
[6] = system: Pseudomonas aeruginosa PA006
[7] = system: Pseudomonas aeruginosa Pa4-SA2
[8] = system: Escherichia coli ATCC 25922
[9] = system: Pseudomonas aeruginosa PAO1
[10] = system: Staphylococcus aureus ATCC 29313
[11] = system: Salmonella enterica subsp. enterica serovar Typhimurium ATCC 14028
[12] = system: Klebsiella pneumoniae ATCC 700603
[13] = system: Pseudomonas aeruginosa ATCC 27853
[14] = system: Escherichia coli NEB5alpha
[15] = system: Bacillus subtilis ATCC 6051
Candida albicans 01U = system: Candida albicans 01U
Trichophyton rubrum = system: Trichophyton rubrum
[16] = system: Cryptococcus neoformans L26
Candida albicans 38U = system: Candida albicans 38U
[17] = system: Cryptococcus neoformans L30
Candida parapsilosis = system: Candida parapsilosis
[18] = system: Trichophyton mentagrophytes
[19] = system: Staphylococcus aureus 68 HER 1049
[20] = system: Escherichia coli K12 MG1655

CC[C@H](C)[C@H](NC(=O)[C@H](CC(C)C)NC(=O)[C@@H]1CCCN1C(=O)[C@H](CC(C)C)NC(=O)[C@@H](N)Cc1ccccc1)C(=O)N[C@@H](CC(C)C)C(=O)N1CCC[C@H]1C(=O)N[C@@H](CO)C(=O)N[C@H](C(=O)N[C@H](C(=O)N[C@H](C(=O)N[C@@H](C)C(=O)N[C@@H](CC(C)C)C(=O)N[C@@H](CO)C(=O)N[C@@H](CO)C(=O)N[C@@H](Cc1ccccc1)C(=O)N[C@@H](CC(C)C)C(=O)N[C@@H](CCCCN)C(=O)N[C@@H](CCC(N)=O)C(=O)NCC(=O)O)[C@@H](C)O)C(C)C)[C@@H](C)CC [FLPLILPSIVTALSSFLKQG] was tested, and the MIC [1] was 23.3 µM (≈ 50 µg/mL), the MIC [2] was 11.7 µM (≈ 25.1 µg/mL) and the MIC [3] was 23.3 µM (≈ 50 µg/mL). The MIC [4] was ≥ 46.6 µM.
For CC[C@H](C)[C@H](NC(=O)[C@H](CCCCN)NC(=O)CNC(=O)[C@@H](NC(=O)[C@H](C)NC(=O)[C@H](Cc1cnc[nH]1)NC(=O)[C@H](C)NC(=O)[C@@H](NC(=O)[C@H](CC(C)C)NC(=O)[C@H](CCC(N)=O)NC(=O)[C@H](CCCCN)NC(=O)CNC(=O)[C@H](C)NC(=O)[C@H](CC(=O)O)NC(=O)[C@H](CCCCN)NC(=O)[C@@H](NC(=O)[C@@H](NC(=O)[C@H](CC(=O)O)NC(=O)[C@H](Cc1ccccc1)NC(=O)[C@@H](NC(=O)CN)C(C)C)[C@@H](C)CC)[C@@H](C)CC)C(C)C)[C@@H](C)O)C(=O)N[C@@H](C)C(=O)N[C@@H](CCC(=O)O)C(=O)N[C@@H](CCCCN)C(=O)N[C@H](C(N)=O)C(C)C [GVFDIIKDAGKQLVAHATGKIAEKV], the MIC [5] was ≥ 98.1 µM, the MIC [6] was 6.13 µM (≈ 16 µg/mL) and the MIC [7] was ≥ 49.1 µM. For the same compound, the MIC [8] was > 307 µM, the MIC [9] was 196 µM (≈ 512 µg/mL) and the MIC [10] was ≥ 307 µM. The MIC [11] was > 307 µM, the MIC [12] was > 307 µM and the MIC [13] was 392 µM (≈ 1020 µg/mL).
With CC[C@H](C)[C@H](NC(=O)[C@@H]1CCCN1C(=O)[C@H](Cc1cnc[nH]1)NC(=O)[C@H](CCCCN)NC(=O)[C@@H]1CCCN1C(=O)[C@@H](N)CCCN=C(N)N)C(=O)N[C@@H](CCCCN)C(=O)N[C@@H](Cc1cnc[nH]1)C(=O)N[C@@H](CCC(N)=O)C(=O)NCC(=O)N[C@@H](CC(C)C)C(=O)N1CCC[C@H]1C(=O)N[C@@H](CCC(N)=O)C(=O)N[C@@H](CCC(=O)O)C(=O)N[C@H](C(=O)N[C@@H](CC(C)C)C(=O)N[C@@H](CC(N)=O)C(=O)N[C@@H](CCC(=O)O)C(=O)N[C@@H](CC(N)=O)C(=O)N[C@@H](CC(C)C)C(=O)N[C@@H](CC(C)C)C(=O)N[C@@H](CCCN=C(N)N)C(=O)N[C@@H](Cc1ccccc1)C(=O)N[C@@H](Cc1ccccc1)C(=O)O)C(C)C [RPKHPIKHQGLPQEVLNENLLRFF] the MIC [14] was ≥ 47.2 µM, the MIC [8] was 189 µM (≈ 550 µg/mL) and the MIC [15] was 23.6 µM (≈ 68.8 µg/mL).
For CC[C@H](C)[C@H](NC(=O)[C@H](CC(C)C)NC(=O)[C@H](CCC(=O)O)NC(=O)[C@H](CO)NC(=O)[C@H](CCCN=C(N)N)NC(=O)[C@@H](N)CO)C(=O)N[C@H](C(=O)N[C@@H](Cc1cnc[nH]1)C(=O)N[C@@H](CCC(N)=O)C(=O)N[C@@H](CCCN=C(N)N)C(=O)N[C@@H](CCCN=C(N)N)C(=O)N[C@@H](CS)C(N)=O)C(C)C [SRSELIVHQRRC], the MIC (Candida albicans 01U) was ≥ 86.3 µM, the MIC (Trichophyton rubrum) was ≥ 86.3 µM and the MIC [16] was ≥ 173 µM. The MIC (Candida albicans 38U) was ≥ 43.1 µM, the MIC [17] was ≥ 173 µM and the MIC (Candida parapsilosis) was ≥ 173 µM. For the same compound, the MIC [18] was ≥ 173 µM.
CC[C@H](C)[C@H](NC(=O)[C@H](CCCN=C(N)N)NC(=O)[C@H](CCCCN)NC(=O)[C@H](Cc1c[nH]c2ccccc12)NC(=O)[C@H](CCCN=C(N)N)NC(=O)[C@H](CCCCN)NC(=O)[C@H](Cc1c[nH]c2ccccc12)NC(=O)[C@@H](N)Cc1c[nH]c2ccccc12)C(=O)N[C@@H](CCCN=C(N)N)C(=O)N[C@@H](CCCN=C(N)N)C(=O)N[C@H](C(=O)N[C@@H](Cc1ccccc1)C(=O)N[C@@H](CCSC)C(=O)N[C@@H](CCSC)C(=O)N[C@H](C(=O)O)C(C)C)[C@@H](C)CC [WWKRWKRIRRIFMMV] showed an MIC [19] of 3.65 µM (≈ 8 µg/mL) and an MIC [20] of 1.82 µM (≈ 4 µg/mL).

Source: DBAASP
